Data taken from publication PMC10600239, “Selective MCL-1 inhibitor ABBV-467 is efficacious in tumor models but is associated with cardiac troponin increases in patients” (Communications Medicine, 2023).
“And” between values parts separate entries of the source, which are not always exact repeats. Equal values may be shown once.

System: OPM-2 xenografts
Test: OPM-2 xenograft efficacy (tumor volume, body weight)
Type: in vivo, mouse
Conditions: for Body Weight (g) Day 21, individual animals / Body Weight Day 21, Mean / Body Weight Day 21, Median / Relative to initial body wt., %: mouse, in vivo, iv
Experimental: All animal studies were conducted in accordance with the guidelines approved by the Institutional Animal Care and Use Committees of AbbVie. The research protocol was approved by In Vivo Pharmacology at AbbVie prior to study initiation but was not publicly registered or disclosed. Female C.B-17 SCID-beige mice (AMO-1, OPM-2, NCI-H929, and OCI-AML2 xenografts) and female NSG mice (MV4-11-Red.Fluc systemic) were purchased from Charles River Laboratories (Wilmington, MA). Animals were housed in a light cycle-controlled room with HEPA filtration at 22 °C. Animals had nesting and climbing cage topper as the primary environmental enrichment. Animals were inoculated subcutaneously in the right flank with 5 × 10^6 (AMO-1, OPM-2, NCI-H929, and OCI-AML2) or intravenous (IV) with 5 × 10^6 (MV4-11-Red.Fluc). The inoculation volume (0.2 mL) comprised a 50:50 mixture of cells in growth media and Matrigel (BD Biosciences) for subcutaneous injections and 100% phosphate-buffered saline for IV administration. All cell lines used in this publication were authenticated using IDEXX for STR profiling as well as their IMPACT and human IMPACT panels for pathogen screening. Electronic calipers were used to measure the length and width of each tumor 2 to 3 times per week. Tumor volume was estimated by applying the following equation: volume = length × width^2/2. All groups remained blinded during measurements and dosing; only veterinary staff were aware of group identity. When tumors reached approximately 200 mm^3, mice were randomized by match and distributed into treatment and control groups. All xenograft trials were conducted using 5 to 10 mice per group, and all mice were ear tagged and monitored individually throughout the studies. Any animal with a tumor above 2000 mm^3 or 15% loss in body weight was euthanized and removed from the study. Tumor burden in the systemic MV4-11-Red.Fluc experiment was measured using an IVIS® spectrum from PerkinElmer by taking the total photon flux of the entire dorsal side of an individual mouse. Ten minutes prior to imaging, animals received intraperitoneally 0.2 mL of a 15-mg/mL solution of D-Luciferin (PerkinElmer, Catalog #122799) formulated in 100% phosphate-buffered saline. Animals were anesthetized using 3.5% isoflurane and maintained using 2%. Six days after inoculation, animals were imaged and randomized into vehicle and treatment groups at a total flux of ~1 × 10^8. A background control mouse that was tumor naive but received D-Luciferin was placed in the upper left corner of each image. The total flux from this animal was subtracted from the total flux of each animal present in the image.
For in vivo studies, maximal tumor growth inhibition (TGI) was calculated as the greatest treatment response using the following equation: Maximal TGI = (1 − mean tumor volume of the treated group/mean tumor volume of the vehicle control group) × 100. The tumor growth delay (TGD) percentage was determined as the percentage increase of the median time period for the treatment group to reach an arbitrary tumor volume of 1000 mm^3 relative to the vehicle control group. […] A power analysis was conducted using historical data to determine the number of animals required to yield significance of 0.05 at a 30% difference. There were no animals excluded. Data from experiments in vivo were analyzed using the student’s t-test for TGI values and the Mann–Whitney U test for TGD using Excel and GraphPad Prism. Fisher’s exact test was used to probe significance of differences in response frequency.

[1] = OPM-2 (DSMZ) xenograft, SCID-beige mouse, 25 mg/kg q7dx3 IV, Day 63
[2] = OPM-2 (DSMZ) xenograft, SCID-beige mouse, 25 mg/kg q7dx3 IV, Day 70
[3] = OPM-2 (DSMZ) xenograft, SCID-beige mouse, 25 mg/kg q7dx3 IV, Day 77
[4] = OPM-2 (DSMZ) xenograft, SCID-beige mouse, 25 mg/kg q7dx3 IV, Day 106
[5] = OPM-2 (DSMZ) xenograft, SCID-beige mouse, 25 mg/kg q7dx3 IV, Day 113
[6] = OPM-2 (DSMZ) xenograft, SCID-beige mouse, 25 mg/kg q7dx3 IV, Day 120
[7] = individual animals, 6.25 mg/kg q7dx3 IV, Day 37, OPM-2 (DSMZ) xenograft, SCID-beige mouse, 6.25 mg/kg

## Cc1c(Cl)c2c(Cl)c(C)c1-c1c(-c3ccc(F)cc3)sc3ncnc(c13)O[C@@H](C(=O)O)Cc1cc(ccc1OCc1ccnc(-c3ccc(OC[C@H]4COCCO4)cc3)n1)OC[C@@H](CN1CCN(C)CC1)O2 [Compound A-1747745]
OPM-2 (DSMZ) xenograft, SCID-beige mice, 25 mg/kg q7dx3 IV, Day 21, mean(T)/mean(C)
  Body Weight Day 21, % T/C (mean): 105.36%
OPM-2 (DSMZ) xenograft, SCID-beige mice, 25 mg/kg q7dx3 IV, Day 21, median(T)/median(C)
  Body Weight Day 21, % T/C (median): 105.36%
[1]
  Tumor Volume (mm³) Day 63 (individual animals): 4 mm³
  Tumor Volume Day 63, Mean: 4.00 mm³
  Tumor Volume Day 63, Median: 4.00 mm³
[2]
  Tumor Volume (mm³) Day 70 (individual animals): 4 mm³
  Tumor Volume Day 70, Mean: 4.00 mm³
  Tumor Volume Day 70, Median: 4.00 mm³
[3]
  Tumor Volume (mm³) Day 77 (individual animals): 4 mm³
  Tumor Volume Day 77, Mean: 4.00 mm³
  Tumor Volume Day 77, Median: 4.00 mm³
[4]
  Tumor Volume (mm³) Day 106 (individual animals): 4 mm³
  Tumor Volume Day 106, Mean: 4.00 mm³
  Tumor Volume Day 106, Median: 4.00 mm³
[5]
  Tumor Volume (mm³) Day 113 (individual animals): 4 mm³
  Tumor Volume Day 113, Mean: 4.00 mm³
  Tumor Volume Day 113, Median: 4.00 mm³
[6]
  Tumor Volume (mm³) Day 120 (individual animals): 4 mm³
  Tumor Volume Day 120, Mean: 4.00 mm³
  Tumor Volume Day 120, Median: 4.00 mm³
Group mean, 6.25 mg/kg q7dx3 IV, Day 37, OPM-2 (DSMZ) xenograft, SCID-beige mouse
  Tumor Volume Day 37, Mean: 1067.37 mm³
Group mean, 25 mg/kg q7dx3 IV, Day 37, OPM-2 (DSMZ) xenograft, SCID-beige mouse
  Tumor Volume Day 37, Mean: 4.00 mm³
Group mean, 25 mg/kg q7dx3 IV, Day 41, SCID-beige mice
  Tumor Volume Day 41, Mean: 4.00 mm³
Group mean, 25 mg/kg q7dx3 IV, Day 44, SCID-beige mice
  Tumor Volume Day 44, Mean: 4.00 mm³
Group mean, 25 mg/kg q7dx3 IV, OPM-2 (DSMZ) xenograft, SCID-beige mice, Day 86
  Tumor Volume (mm³) Day 86, Mean: 4.00 mm³
Group mean, 25 mg/kg q7dx3 IV, OPM-2 (DSMZ) xenograft, SCID-beige mice, Day 93
  Tumor Volume (mm³) Day 93, Mean: 4.00 mm³
Group mean, 25 mg/kg q7dx3 IV, OPM-2 (DSMZ) xenograft, SCID-beige mice, Day 101
  Tumor Volume (mm³) Day 101, Mean: 4.00 mm³
Group mean, 25 mg/kg q7dx3 IV, OPM-2 (DSMZ) xenograft, SCID-beige mouse, Day 51
  Tumor Volume (mm³) Day 51, Mean: 4.00 mm³
Group mean, 25 mg/kg q7dx3 IV, OPM-2 (DSMZ) xenograft, SCID-beige mouse, Day 57
  Tumor Volume (mm³) Day 57, Mean: 4.00 mm³
Group median, 6.25 mg/kg q7dx3 IV, Day 37, OPM-2 (DSMZ) xenograft, SCID-beige mouse
  Tumor Volume Day 37, Median: 1120.03 mm³
Group median, 25 mg/kg q7dx3 IV, Day 37, OPM-2 (DSMZ) xenograft, SCID-beige mouse
  Tumor Volume Day 37, Median: 4.00 mm³
Group median, 25 mg/kg q7dx3 IV, Day 41, SCID-beige mice
  Tumor Volume Day 41, Median: 4.00 mm³
Group median, 25 mg/kg q7dx3 IV, Day 44, SCID-beige mice
  Tumor Volume Day 44, Median: 4.00 mm³
Group median, 25 mg/kg q7dx3 IV, OPM-2 (DSMZ) xenograft, SCID-beige mice, Day 86
  Tumor Volume (mm³) Day 86, Median: 4.00 mm³
Group median, 25 mg/kg q7dx3 IV, OPM-2 (DSMZ) xenograft, SCID-beige mice, Day 93
  Tumor Volume (mm³) Day 93, Median: 4.00 mm³
Group median, 25 mg/kg q7dx3 IV, OPM-2 (DSMZ) xenograft, SCID-beige mice, Day 101
  Tumor Volume (mm³) Day 101, Median: 4.00 mm³
Group median, 25 mg/kg q7dx3 IV, OPM-2 (DSMZ) xenograft, SCID-beige mouse, Day 51
  Tumor Volume (mm³) Day 51, Median: 4.00 mm³
Group median, 25 mg/kg q7dx3 IV, OPM-2 (DSMZ) xenograft, SCID-beige mouse, Day 57
  Tumor Volume (mm³) Day 57, Median: 4.00 mm³
[7]
  Mortality Observation Day 37: GRPX and EUTV (3×)
  Tumor Volume (mm³) Day 37: 830 mm³ and 1099 mm³ and 1199 mm³ and 1141 mm³
Individual animals, 25 mg/kg q7dx3 IV, Day 37, OPM-2 (DSMZ) xenograft, SCID-beige mouse
  Tumor Volume (mm³) Day 37: 4 mm³
Individual animals, 25 mg/kg q7dx3 IV, Day 41, SCID-beige mice
  Tumor Volume (mm³) Day 41: 4 mm³
Individual animals, 25 mg/kg q7dx3 IV, Day 44, SCID-beige mice
  Tumor Volume (mm³) Day 44: 4 mm³
Individual animals, 25 mg/kg q7dx3 IV, OPM-2 (DSMZ) xenograft, SCID-beige mice, Day 86
  Tumor Volume (mm³) Day 86: 4 mm³
Individual animals, 25 mg/kg q7dx3 IV, OPM-2 (DSMZ) xenograft, SCID-beige mice, Day 93
  Tumor Volume (mm³) Day 93: 4 mm³
Individual animals, 25 mg/kg q7dx3 IV, OPM-2 (DSMZ) xenograft, SCID-beige mice, Day 101
  Tumor Volume (mm³) Day 101: 4 mm³
Individual animals, 25 mg/kg q7dx3 IV, OPM-2 (DSMZ) xenograft, SCID-beige mouse, Day 51
  Tumor Volume (mm³) Day 51: 4 mm³
Individual animals, 25 mg/kg q7dx3 IV, OPM-2 (DSMZ) xenograft, SCID-beige mouse, Day 57
  Tumor Volume (mm³) Day 57: 4 mm³
6.25 mg/kg
  Body Weight (g) Day 21, individual animals: 21 g
  Body Weight Day 21, Mean: 21.00 g
  Body Weight Day 21, Median: 21.00 g
  Relative to initial body wt., %: 0.00%
25 mg/kg
  Body Weight (g) Day 21, individual animals: 22 g
  Body Weight Day 21, Mean: 22.13 g
  Body Weight Day 21, Median: 22.13 g
  Relative to initial body wt., %: 0.00%
